Data as given in ChEMBL document CHEMBL1133032, “Combinatorial approach to lead optimization of a novel hexapeptide with antifungal activity” (Bioorg Med Chem Lett, 2000).
Converted amounts (≈) assume the structure as drawn. Square brackets hold non-standard residues; d marks the D form. Peptide text beside a SMILES is read from it.

test system: Cryptococcus neoformans; experiment: Lowest concentration of compound that substantially inhibited the growth of Cryptococcus neoformans after 48 hr; assay type: functional

| SMILES | MIC |
| --- | --- |
| CC[C@H](C)[C@H](NC(=O)[C@@H](Cc1ccccc1)NC(=O)[C@@H](Cc1c[nH]c2ccccc12)NC(=O)[C@@H](N)CCCN=C(N)N)C(=O)N[C@H](Cc1ccccc1)C(=O)N[C@@H](CCCCN)C(N)=O [listing 1 of 2 here] | 6.92 µM (≈ 6.19 µg/mL) |
| CC[C@H](C)[C@H](NC(=O)[C@@H](Cc1ccccc1)NC(=O)[C@@H](Cc1c[nH]c2ccccc12)NC(=O)[C@@H](N)CCCN=C(N)N)C(=O)N[C@H](Cc1ccccc1)C(=O)NCC(N)=O [listing 1 of 2 here] | 15.2 µM (≈ 12.5 µg/mL) |
| CC[C@H](C)[C@H](NC(=O)[C@@H](Cc1ccccc1)NC(=O)[C@@H](Cc1c[nH]c2ccccc12)NC(=O)[C@@H](N)CCCN=C(N)N)C(=O)N[C@H](Cc1ccccc1)C(=O)N[C@@H](Cc1ccc(O)cc1)C(N)=O [listing 1 of 2 here] | 13.4 µM (≈ 12.5 µg/mL) |
| CC[C@H](C)[C@H](NC(=O)[C@@H](Cc1ccccc1)NC(=O)[C@@H](Cc1c[nH]c2ccccc12)NC(=O)[C@@H](N)CCCN=C(N)N)C(=O)N[C@H](Cc1ccccc1)C(=O)N[C@@H](Cc1c[nH]c2ccccc12)C(N)=O [listing 1 of 2 here] | 13.1 µM (≈ 12.5 µg/mL) |
| CC[C@H](C)[C@H](NC(=O)[C@@H](Cc1ccccc1)NC(=O)[C@@H](Cc1c[nH]c2ccccc12)NC(=O)[C@@H](N)CCCN=C(N)N)C(=O)N[C@H](Cc1ccccc1)C(=O)N[C@H](C(N)=O)C(C)C [listing 1 of 2 here] | 14.4 µM (≈ 12.5 µg/mL) |
| CC[C@H](C)[C@H](NC(=O)[C@@H](Cc1ccccc1)NC(=O)[C@@H](Cc1c[nH]c2ccccc12)NC(=O)[C@@H](N)CCCN=C(N)N)C(=O)N[C@H](Cc1ccccc1)C(=O)N[C@@H](CO)C(N)=O [listing 1 of 2 here] | 14.6 µM (≈ 12.5 µg/mL) |
| CC[C@H](C)[C@H](NC(=O)[C@@H](Cc1ccccc1)NC(=O)[C@@H](Cc1c[nH]c2ccccc12)NC(=O)[C@@H](N)CCCN=C(N)N)C(=O)N[C@H](Cc1ccccc1)C(=O)N[C@@H](CCCN=C(N)N)C(N)=O [listing 1 of 2 here] | 6.71 µM (≈ 6.19 µg/mL) |
| CC[C@H](C)[C@H](NC(=O)[C@@H](Cc1ccccc1)NC(=O)[C@@H](Cc1c[nH]c2ccccc12)NC(=O)[C@@H](N)CCCN=C(N)N)C(=O)N[C@H](Cc1ccccc1)C(=O)N[C@@H](CCC(N)=O)C(N)=O [listing 1 of 2 here] | 55.9 µM (≈ 50 µg/mL) |
| CC[C@H](C)[C@H](NC(=O)[C@@H](Cc1ccccc1)NC(=O)[C@@H](Cc1c[nH]c2ccccc12)NC(=O)[C@@H](N)CCCN=C(N)N)C(=O)N[C@H](Cc1ccccc1)C(=O)N1CCC[C@H]1C(N)=O [listing 1 of 2 here] | 28.9 µM (≈ 25 µg/mL) |
| CC[C@H](C)[C@H](NC(=O)[C@@H](Cc1ccccc1)NC(=O)[C@@H](Cc1c[nH]c2ccccc12)NC(=O)[C@@H](N)CCCN=C(N)N)C(=O)N[C@H](Cc1ccccc1)C(=O)N[C@@H](CC(N)=O)C(N)=O [listing 1 of 2 here] | 14.2 µM (≈ 12.5 µg/mL) |
| CC[C@H](C)[C@H](NC(=O)[C@@H](Cc1ccccc1)NC(=O)[C@@H](Cc1c[nH]c2ccccc12)NC(=O)[C@@H](N)CCCN=C(N)N)C(=O)N[C@H](Cc1ccccc1)C(=O)N[C@@H](CCSC)C(N)=O [listing 1 of 2 here] | 27.8 µM (≈ 25 µg/mL) |
| CC[C@H](C)[C@H](NC(=O)[C@@H](Cc1ccccc1)NC(=O)[C@@H](Cc1c[nH]c2ccccc12)NC(=O)[C@@H](N)CCCN=C(N)N)C(=O)N[C@H](Cc1ccccc1)C(=O)N[C@@H](CC(C)C)C(N)=O [listing 1 of 2 here] | 7.04 µM (≈ 6.2 µg/mL) |
| CC[C@H](C)[C@H](NC(=O)[C@@H](Cc1ccccc1)NC(=O)[C@@H](Cc1c[nH]c2ccccc12)NC(=O)[C@@H](N)CCCN=C(N)N)C(=O)N[C@H](Cc1ccccc1)C(=O)N[C@@H](Cc1ccccc1)C(N)=O [listing 1 of 2 here] | 13.7 µM (≈ 12.5 µg/mL) |
| CC[C@H](C)[C@H](NC(=O)[C@@H](Cc1ccccc1)NC(=O)[C@@H](Cc1c[nH]c2ccccc12)NC(=O)[C@@H](N)CCCN=C(N)N)C(=O)N[C@H](Cc1ccccc1)C(=O)N[C@@H](CCC(=O)O)C(N)=O [listing 1 of 2 here] | 55.8 µM (≈ 50 µg/mL) |
| CC[C@H](C)[C@H](NC(=O)[C@@H](Cc1ccccc1)NC(=O)[C@@H](Cc1c[nH]c2ccccc12)NC(=O)[C@@H](N)CCCN=C(N)N)C(=O)N[C@H](Cc1ccccc1)C(=O)N[C@@H](CC(=O)O)C(N)=O [listing 1 of 2 here] | 113 µM (≈ 100 µg/mL) |
| CC[C@H](C)[C@H](NC(=O)[C@@H](Cc1ccccc1)NC(=O)[C@@H](Cc1c[nH]c2ccccc12)NC(=O)[C@@H](N)CCCN=C(N)N)C(=O)N[C@H](Cc1ccccc1)C(=O)N[C@@H](C)C(N)=O [listing 1 of 2 here] | 14.9 µM (≈ 12.5 µg/mL) |
| CC[C@H](C)[C@H](NC(=O)[C@@H](Cc1ccccc1)NC(=O)[C@@H](NC(=O)[C@@H](Cc1ccccc1)NC(=O)[C@@H](Cc1c[nH]c2ccccc12)NC(=O)[C@@H](N)CCCN=C(N)N)[C@@H](C)CC)C(N)=O [listing 1 of 2 here] | 28.4 µM (≈ 25 µg/mL) |
| CC[C@H](C)[C@H](NC(=O)[C@@H](Cc1ccccc1)NC(=O)[C@@H](Cc1c[nH]c2ccccc12)NC(=O)[C@@H](N)CCCN=C(N)N)C(=O)N[C@H](Cc1ccccc1)C(=O)N[C@H](C(N)=O)[C@@H](C)O [listing 1 of 2 here] | 14.4 µM (≈ 12.5 µg/mL) |
| NCCCC[C@H](NC(=O)[C@@H](Cc1ccccc1)NC(=O)[C@H](Cc1ccccc1)NC(=O)[C@@H](Cc1ccccc1)NC(=O)[C@@H](Cc1c[nH]c2ccccc12)NC(=O)[C@@H](N)Cc1c[nH]cn1)C(N)=O (H-H[dW][dF]F[dF]K-NH2) | 6.81 µM (≈ 6.2 µg/mL) |
| CC[C@H](C)[C@H](NC(=O)[C@@H](Cc1ccccc1)NC(=O)[C@@H](Cc1c[nH]c2ccccc12)NC(=O)[C@@H](N)CCCN=C(N)N)C(=O)N[C@H](Cc1ccccc1)C(=O)N[C@@H](Cc1c[nH]cn1)C(N)=O (H-R[dW][dF]I[dF]H-NH2) [listing 1 of 2 here] | 6.85 µM (≈ 6.19 µg/mL) |

test system: Candida albicans; experiment: Antifungal activity against Candida albicans using twofold microbroth dilution technique.; assay type: functional, organism-based

| SMILES | IC50 |
| --- | --- |
| CC[C@H](C)[C@H](NC(=O)[C@@H](Cc1ccccc1)NC(=O)[C@@H](Cc1c[nH]c2ccccc12)NC(=O)[C@@H](N)CCCN=C(N)N)C(=O)N[C@H](Cc1ccccc1)C(=O)N[C@@H](CCCCN)C(N)=O [listing 2 of 2 here] | 14.4 µM |
| CC[C@H](C)[C@H](NC(=O)[C@@H](Cc1ccccc1)NC(=O)[C@@H](Cc1c[nH]c2ccccc12)NC(=O)[C@@H](N)CCCN=C(N)N)C(=O)N[C@H](Cc1ccccc1)C(=O)NCC(N)=O [listing 2 of 2 here] | 33.9 µM |
| CC[C@H](C)[C@H](NC(=O)[C@@H](Cc1ccccc1)NC(=O)[C@@H](Cc1c[nH]c2ccccc12)NC(=O)[C@@H](N)CCCN=C(N)N)C(=O)N[C@H](Cc1ccccc1)C(=O)N[C@@H](Cc1ccc(O)cc1)C(N)=O [listing 2 of 2 here] | 15.9 µM |
| CC[C@H](C)[C@H](NC(=O)[C@@H](Cc1ccccc1)NC(=O)[C@@H](Cc1c[nH]c2ccccc12)NC(=O)[C@@H](N)CCCN=C(N)N)C(=O)N[C@H](Cc1ccccc1)C(=O)N[C@@H](Cc1c[nH]c2ccccc12)C(N)=O [listing 2 of 2 here] | 25.4 µM |
| CC[C@H](C)[C@H](NC(=O)[C@@H](Cc1ccccc1)NC(=O)[C@@H](Cc1c[nH]c2ccccc12)NC(=O)[C@@H](N)CCCN=C(N)N)C(=O)N[C@H](Cc1ccccc1)C(=O)N[C@H](C(N)=O)C(C)C [listing 2 of 2 here] | > 28.4 µM |
| CC[C@H](C)[C@H](NC(=O)[C@@H](Cc1ccccc1)NC(=O)[C@@H](Cc1c[nH]c2ccccc12)NC(=O)[C@@H](N)CCCN=C(N)N)C(=O)N[C@H](Cc1ccccc1)C(=O)N[C@@H](CO)C(N)=O [listing 2 of 2 here] | > 14.9 µM |
| CC[C@H](C)[C@H](NC(=O)[C@@H](Cc1ccccc1)NC(=O)[C@@H](Cc1c[nH]c2ccccc12)NC(=O)[C@@H](N)CCCN=C(N)N)C(=O)N[C@H](Cc1ccccc1)C(=O)N[C@@H](CCCN=C(N)N)C(N)=O [listing 2 of 2 here] | > 12.5 µM |
| CC[C@H](C)[C@H](NC(=O)[C@@H](Cc1ccccc1)NC(=O)[C@@H](Cc1c[nH]c2ccccc12)NC(=O)[C@@H](N)CCCN=C(N)N)C(=O)N[C@H](Cc1ccccc1)C(=O)N[C@@H](CCC(N)=O)C(N)=O [listing 2 of 2 here] | 30.2 µM |
| CC[C@H](C)[C@H](NC(=O)[C@@H](Cc1ccccc1)NC(=O)[C@@H](Cc1c[nH]c2ccccc12)NC(=O)[C@@H](N)CCCN=C(N)N)C(=O)N[C@H](Cc1ccccc1)C(=O)N1CCC[C@H]1C(N)=O [listing 2 of 2 here] | 51.4 µM |
| CC[C@H](C)[C@H](NC(=O)[C@@H](Cc1ccccc1)NC(=O)[C@@H](Cc1c[nH]c2ccccc12)NC(=O)[C@@H](N)CCCN=C(N)N)C(=O)N[C@H](Cc1ccccc1)C(=O)N[C@@H](CC(N)=O)C(N)=O [listing 2 of 2 here] | > 14.9 µM |
| CC[C@H](C)[C@H](NC(=O)[C@@H](Cc1ccccc1)NC(=O)[C@@H](Cc1c[nH]c2ccccc12)NC(=O)[C@@H](N)CCCN=C(N)N)C(=O)N[C@H](Cc1ccccc1)C(=O)N[C@@H](CCSC)C(N)=O [listing 2 of 2 here] | 24.5 µM |
| CC[C@H](C)[C@H](NC(=O)[C@@H](Cc1ccccc1)NC(=O)[C@@H](Cc1c[nH]c2ccccc12)NC(=O)[C@@H](N)CCCN=C(N)N)C(=O)N[C@H](Cc1ccccc1)C(=O)N[C@@H](CC(C)C)C(N)=O [listing 2 of 2 here] | 14.9 µM |
| CC[C@H](C)[C@H](NC(=O)[C@@H](Cc1ccccc1)NC(=O)[C@@H](Cc1c[nH]c2ccccc12)NC(=O)[C@@H](N)CCCN=C(N)N)C(=O)N[C@H](Cc1ccccc1)C(=O)N[C@@H](Cc1ccccc1)C(N)=O [listing 2 of 2 here] | 13.7 µM |
| CC[C@H](C)[C@H](NC(=O)[C@@H](Cc1ccccc1)NC(=O)[C@@H](Cc1c[nH]c2ccccc12)NC(=O)[C@@H](N)CCCN=C(N)N)C(=O)N[C@H](Cc1ccccc1)C(=O)N[C@@H](CCC(=O)O)C(N)=O [listing 2 of 2 here] | > 28.4 µM |
| CC[C@H](C)[C@H](NC(=O)[C@@H](Cc1ccccc1)NC(=O)[C@@H](Cc1c[nH]c2ccccc12)NC(=O)[C@@H](N)CCCN=C(N)N)C(=O)N[C@H](Cc1ccccc1)C(=O)N[C@@H](CC(=O)O)C(N)=O [listing 2 of 2 here] | > 14.9 µM |
| CC[C@H](C)[C@H](NC(=O)[C@@H](Cc1ccccc1)NC(=O)[C@@H](Cc1c[nH]c2ccccc12)NC(=O)[C@@H](N)CCCN=C(N)N)C(=O)N[C@H](Cc1ccccc1)C(=O)N[C@@H](C)C(N)=O [listing 2 of 2 here] | > 14.9 µM |
| CC[C@H](C)[C@H](NC(=O)[C@@H](Cc1ccccc1)NC(=O)[C@@H](NC(=O)[C@@H](Cc1ccccc1)NC(=O)[C@@H](Cc1c[nH]c2ccccc12)NC(=O)[C@@H](N)CCCN=C(N)N)[C@@H](C)CC)C(N)=O [listing 2 of 2 here] | 45.6 µM |
| CC[C@H](C)[C@H](NC(=O)[C@@H](Cc1ccccc1)NC(=O)[C@@H](Cc1c[nH]c2ccccc12)NC(=O)[C@@H](N)CCCN=C(N)N)C(=O)N[C@H](Cc1ccccc1)C(=O)N[C@H](C(N)=O)[C@@H](C)O [listing 2 of 2 here] | > 14.9 µM |
| NCCCC[C@H](NC(=O)[C@@H](Cc1ccccc1)NC(=O)[C@H](Cc1ccccc1)NC(=O)[C@@H](Cc1ccccc1)NC(=O)[C@@H](Cc1c[nH]c2ccccc12)NC(=O)[C@@H](N)Cc1c[nH]cn1)C(N)=O (H-H[dW][dF]F[dF]K-NH2) | 28.6 µM |
| CC[C@H](C)[C@H](NC(=O)[C@@H](Cc1ccccc1)NC(=O)[C@@H](Cc1c[nH]c2ccccc12)NC(=O)[C@@H](N)CCCN=C(N)N)C(=O)N[C@H](Cc1ccccc1)C(=O)N[C@@H](Cc1c[nH]cn1)C(N)=O (H-R[dW][dF]I[dF]H-NH2) [listing 2 of 2 here] | 6.85 µM |
